Read-outs that look alike come from different tables or passages of the source.
Tests used:
Assay in all cases: isothermal titration calorimetry
Format in all cases: binding
ORP8 ORD = target: T1, ORP8 ORD (Homo sapiens, UniProt Q9BZF1)
T1 construct: gene OSBPL8; ORD domain 400-778 of ORP8L, His6-ubiquitin tag removed by DUB without extra N-terminal residues, E. coli
T1 sequence (Q9BZF1 400-778): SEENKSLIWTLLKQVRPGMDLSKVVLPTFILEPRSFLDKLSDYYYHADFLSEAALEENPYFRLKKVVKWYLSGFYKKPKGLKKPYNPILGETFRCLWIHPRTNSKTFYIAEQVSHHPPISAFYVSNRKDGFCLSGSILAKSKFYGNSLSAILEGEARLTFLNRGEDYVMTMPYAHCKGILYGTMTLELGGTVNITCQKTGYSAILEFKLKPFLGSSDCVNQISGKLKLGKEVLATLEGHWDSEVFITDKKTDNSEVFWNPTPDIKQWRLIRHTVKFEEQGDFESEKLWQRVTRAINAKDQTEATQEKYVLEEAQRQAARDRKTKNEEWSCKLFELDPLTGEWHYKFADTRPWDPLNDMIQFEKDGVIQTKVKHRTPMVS
Text: isothermal titration calorimetry on ORP8 ORD

ORP5 ORD = target: T2, ORP5 ORD (Homo sapiens, UniProt Q9H0X9)
T2 construct: gene OSBPL5; ORD domain 364-746 of ORP5A, His6-ubiquitin tag removed by DUB without extra N-terminal residues, E. coli
T2 sequence (Q9H0X9 364-746): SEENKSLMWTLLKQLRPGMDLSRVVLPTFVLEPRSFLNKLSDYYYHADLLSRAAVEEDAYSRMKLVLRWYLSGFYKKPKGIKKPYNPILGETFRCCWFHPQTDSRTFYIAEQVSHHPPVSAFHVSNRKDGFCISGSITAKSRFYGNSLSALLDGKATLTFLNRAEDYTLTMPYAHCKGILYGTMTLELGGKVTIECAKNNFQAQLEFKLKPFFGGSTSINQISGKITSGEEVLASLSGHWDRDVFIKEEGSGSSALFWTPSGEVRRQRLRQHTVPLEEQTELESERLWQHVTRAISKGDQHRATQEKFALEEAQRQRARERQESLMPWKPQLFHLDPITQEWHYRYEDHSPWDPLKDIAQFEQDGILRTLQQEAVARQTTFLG
Text: isothermal titration calorimetry on ORP5 ORD

ORP8 PH = target: T3, ORP8 PH (Homo sapiens, UniProt Q9BZF1)
T3 construct: gene OSBPL8; PH domain 149-265 of ORP8L, synthetic gene, N-terminal MGSSGSSG and C-terminal RSGPSSGLEEF linkers, GST tag cleaved by thrombin, E. coli
T3 sequence (Q9BZF1 149-265): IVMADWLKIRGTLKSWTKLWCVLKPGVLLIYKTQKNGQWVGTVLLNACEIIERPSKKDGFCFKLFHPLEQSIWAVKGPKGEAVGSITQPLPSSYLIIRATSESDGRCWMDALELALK
Text: isothermal titration calorimetry on ORP8 PH

ORP5 PH = target: T4, ORP5 PH (Homo sapiens, UniProt Q9H0X9)
T4 construct: gene OSBPL5; PH domain 127-243 of ORP5A, synthetic gene, N-terminal MGSSGSSG and C-terminal RSGPSSGLEEF linkers, GST tag cleaved by thrombin, E. coli
T4 sequence (Q9H0X9 127-243): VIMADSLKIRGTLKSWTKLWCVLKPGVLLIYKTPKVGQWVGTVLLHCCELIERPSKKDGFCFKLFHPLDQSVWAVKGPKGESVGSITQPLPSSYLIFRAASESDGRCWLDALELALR
Text: isothermal titration calorimetry on ORP5 PH

[1] = water-soluble diC8 lipid, 25 °C, 50 mM Tris pH 8.0, 100 mM NaCl

Row | Structure (SMILES) | Kd (ORP8 ORD) [µM] | Kd (ORP5 ORD) [µM] | Kd (ORP8 PH) [µM] | Kd (ORP5 ORD; [1]) [µM] | Kd (ORP5 PH; [1]) [µM] | Kd (ORP8 ORD; [1]) [µM] | Kd (ORP5 PH) [µM]
1 | CCCCCCCC(=O)OC[C@H](COP(=O)(O)O[C@@H]1[C@H](O)[C@H](OP(=O)(O)O)[C@@H](O)[C@H](O)[C@H]1O)OC(=O)CCCCCCC [PtdIns(3)P] | 1.7 ± 0.8 | 9 ± 2.7 |  |  |  |  | 
2 | CCCCCCCC(=O)OC[C@H](COP(=O)(O)O[C@H]1[C@H](O)[C@@H](O)[C@H](OP(=O)(O)O)[C@@H](OP(=O)(O)O)[C@H]1O)OC(=O)CCCCCCC [PtdIns(3,4)P2] | 2.5 ± 0.6 |  | 2.9 ± 0.1 | 0.8 ± 0.8 | 16.3 ± 0.4 |  | 
3 | CCCCCCCC(=O)OC[C@H](COP(=O)(O)O[C@H]1[C@H](O)[C@@H](OP(=O)(O)O)[C@H](OP(=O)(O)O)[C@@H](OP(=O)(O)O)[C@H]1O)OC(=O)CCCCCCC [PtdIns(3,4,5)P3] |  |  | 11.8 ± 3.2 | 1.1 ± 0.3 | 5.3 ± 2.4 |  | 
4 | CCCCCCCC(=O)OC[C@H](COP(=O)(O)O[C@H]1[C@H](O)[C@@H](O)[C@H](OP(=O)(O)O)[C@@H](O)[C@H]1O)OC(=O)CCCCCCC [PtdIns(4)P] |  |  |  | 6.7 ± 3.3 |  | 2.3 ± 0.3 | 
5 | CCCCCCCC(=O)OC[C@H](COP(=O)(O)O[C@@H]1[C@H](O)[C@H](O)[C@@H](OP(=O)(O)O)[C@H](OP(=O)(O)O)[C@H]1O)OC(=O)CCCCCCC [PtdIns(4,5)P2] | 5.3 ± 0.4 | 6.7 ± 1.5 | 5.5 ± 1.2 |  |  |  | 7.3 ± 0.5
6 | CCCCCCCC(=O)OC[C@H](COP(=O)(O)O[C@H]1[C@H](O)[C@@H](OP(=O)(O)O)[C@H](O)[C@@H](O)[C@H]1O)OC(=O)CCCCCCC [PtdIns(5)P] | 5.9 ± 4.1 |  |  |  |  |  | 

From article PMC5624964, “ORP5 and ORP8 bind phosphatidylinositol-4, 5-biphosphate (PtdIns(4,5)P2) and regulate its level at the plasma membrane” (Nature Communications, 2017)
